Assay results: US20200017495A1, “NOVEL HETEROCYCLIC COMPOUNDS AND THEIR USE IN PREVENTING OR TREATING BACTERIAL INFECTIONS” (priority 2017, published 2020)
Read-outs that look alike come from different tables or passages of the source.

How the values were obtained:
[1] = tested on: Escherichia coli (ECO) isolates; experiment: MIC of compounds alone and combined with antibacterials, broth microdilution (CLSI); assay type: cell-based; details: Escherichia coli
Method in brief: (§1)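 First, log-phase suspensions are brought to 5.10^5 CFU/mL final in ca-MHB; plates then incubate 16-20 h at 35° C in air. Growth is judged visually, giving the compound MIC alone and the antibacterial MIC at each compound concentration.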

[2] = tested on: Enterobacter cloacae (ECL) isolates; experiment: as above; assay type: cell-based; details: Enterobacter cloacae
Method in brief: as §1

C=CC1=C(C(=O)O)N2C(=O)[C@@H](NC(=O)/C(=N\O)c3csc(N)n3)[C@H]2SC1 [CDR, Cefdinir]
MIC ([1]; strain ECO 4133, genotype TEM-30, OXA-1, read-out: MIC): 0.5 mg/L
MIC ([1]; strain ECO 5302, genotype TEM-1, OXA-1, read-out: MIC): 1 mg/L
MIC ([1]; strain ECO 131119, genotype TEM-1, OXA-48, read-out: MIC): 256 mg/L
MIC ([1]; strain ECO 180070, genotype TEM-1, CTX-M-15): > 256 mg/L
MIC ([1]; strain ECO 190314, genotype CTX-M-1): > 256 mg/L
MIC ([1]; strain ECO 190317, genotype TEM-1, SHV-12, CTX-M-15, OXA-1): > 256 mg/L
MIC ([1]; strain ECO 190457, genotype CTX-M-15, OXA-1): > 256 mg/L
MIC ([1]; strain ECO 190549, genotype CTX-M-1, read-out: MIC): 256 mg/L
MIC ([1]; strain ECO 200159, genotype TEM-1, CTX-M-14, read-out: MIC): 256 mg/L
MIC ([1]; strain ECO 200259, genotype CTX-M-14, read-out: MIC): 256 mg/L
MIC ([1]; strain ECO 200344, genotype CTX-M-1): > 256 mg/L
MIC ([1]; strain ECO 260096, genotype CTX-M-132): > 256 mg/L
MIC ([1]; strain ECO 260304, genotype CTX-M-15, read-out: MIC): 256 mg/L
MIC ([1]; strain ECO 260508, genotype TEM-1, CTX-M-15, OXA-1): > 256 mg/L
MIC ([1]; strain ECO RGN238, genotype OXA-1, read-out: MIC): 0.5 mg/L
MIC ([1]; strain ECO UFR15, genotype TEM-1, OXA-48): > 256 mg/L
MIC ([1]; strain ECO UFR16, genotype TEM-1, CTX-M-15, OXA-1, OXA-48): > 256 mg/L
MIC ([1]; strain ECO UFR17, genotype TEM-1, CTX-M-15, CMY-2, OXA-1, OXA-181): > 256 mg/L
MIC ([1]; strain ECO UFR18, genotype CTX-M-15, OXA-204): > 256 mg/L
MIC ([1]; strain ECO UFR19, genotype CTX-M-15, CMY-2, OXA-1, OXA-204): > 256 mg/L
MIC ([1]; strain ECO UFR20, genotype SHV-1, CTX-M-15, OXA-1, OXA-232): > 256 mg/L
MIC ([1]; strain ECO UFR61O, genotype TEM-1, KPC-2): > 256 mg/L
MIC ([1]; strain ECO UFR62, genotype TEM-1, CTX-M-9, KPC-2): > 256 mg/L
MIC ([1]; strain ECO UFR74, genotype SHV-1, DHA-1): > 256 mg/L
MIC ([1]; strain ECO UFR86, genotype ompC-, ompF-, read-out: MIC): 2 mg/L
MIC ([1]; strain ECO UFR174, genotype TEM-1, KPC-2, OXA-1): > 256 mg/L
MIC ([1]; strain ECO UFR175, genotype TEM-1, KPC-2, OXA-9): > 256 mg/L
MIC ([1]; strain ECO UFR176, genotype KPC-3, OXA-9*): > 256 mg/L
MIC ([1]; strain ECO UFR184, genotype CTX-M-15, CMY-4, OXA-1, OXA-204): > 256 mg/L
MIC ([1]; strain ECO UFR185, genotype OXA-48): > 256 mg/L
MIC ([1]; strain ECO UFR186, genotype TEM-1, CTX-M-14, OXA-48): > 256 mg/L
MIC ([1]; strain ECO UFR187, genotype CTX-M-15, OXA-48): > 256 mg/L
MIC ([1]; strain ECO UFR189, genotype TEM-1, CTX-M-15, OXA-48): > 256 mg/L
MIC ([1]; strain ECO UFR190, genotype CTX-M-24, OXA-48): > 256 mg/L
MIC ([1]; strain ECO UFR191, genotype TEM-1, CTX-M-24, OXA-48): > 256 mg/L
MIC ([1]; strain ECO UFR207, genotype CTX-M-15): > 256 mg/L
MIC ([1]; strain ECO UFR208, genotype SHV-12): > 256 mg/L
MIC ([1]; strain ECO UFR209, genotype TEM-1, CTX-M-15): > 256 mg/L
MIC ([1]; strain ECO UFR210, genotype SHV-12): > 256 mg/L
MIC ([1]; strain ECO UFR211, genotype TEM-24, read-out: MIC): 32 mg/L
MIC ([1]; strain ECO UFR212, genotype CMY-2): > 256 mg/L
MIC ([1]; strain ECO UFR218, genotype TEM-1, SHV-1, CTX-M-15): > 256 mg/L
MIC ([2]; strain ECL 2185D, genotype OXA-163): > 256 mg/L
MIC ([2]; strain ECL 190310, genotype AmpC): > 256 mg/L
MIC ([2]; strain ECL 190408, genotype TEM-1, CTX-M-15, OXA-1): > 256 mg/L
MIC ([2]; strain ECL 200138, genotype AmpC): > 256 mg/L
MIC ([2]; strain ECL 200322, genotype TEM-1, CTX-M-15, OXA-1): > 256 mg/L
MIC ([2]; strain ECL 260033, genotype AmpC): > 256 mg/L
MIC ([2]; strain ECL 260253, genotype TEM-1, KPC-3): > 256 mg/L
MIC ([2]; strain ECL 260323, genotype AmpC, read-out: MIC): 256 mg/L
MIC ([2]; strain ECL 260508, genotype TEM-1, CTX-M-15): > 256 mg/L
MIC ([2]; strain ECL NEM146383, genotype AmpC): > 256 mg/L
MIC ([2]; strain ECL P99, genotype AmpC): > 256 mg/L
MIC ([2]; strain ECL UFR12, genotype CTX-M-9, OXA-48): > 256 mg/L
MIC ([2]; strain ECL UFR13, genotype TEM-1, SHV-12, CTX-M-9, OXA-48): > 256 mg/L
MIC ([2]; strain ECL UFR14, genotype TEM-1, SHV-12, CTX-M-15, DHA-1, OXA-1, OXA-48): > 256 mg/L
MIC ([2]; strain ECL UFR60, genotype TEM-1, CTX-M-15, KPC-2): > 256 mg/L
MIC ([2]; strain ECL UFR70, genotype TEM-1, CTX-M-15, CMY-2, OXA-1, Porin loss): > 256 mg/L
MIC ([2]; strain ECL UFR84, genotype TEM-1, AmpC, OXA-1): > 256 mg/L
MIC ([2]; strain ECL UFR85, genotype TEM-1, CTX-M-15, AmpC): > 256 mg/L
MIC ([2]; strain ECL UFR194, genotype OXA-48): > 256 mg/L
MIC ([2]; strain ECL UFR195, genotype TEM-1, CTX-M-15, OXA-1, OXA-48): > 256 mg/L
MIC ([2]; strain ECL UFR196, genotype TEM-1, CTX-M-15, OXA-1, OXA-48): > 256 mg/L
MIC ([2]; strain ECL UFR197, genotype TEM-1, CTX-M-15, OXA-1, OXA-48): > 256 mg/L
MIC ([2]; strain ECL UFR198, genotype TEM-1, SHV-12, CTX-M-15, DHA-1, OXA-1, OXA-48): > 256 mg/L
MIC ([2]; strain ECL UFR200, genotype TEM-1, SHV-12, KPC-2): > 256 mg/L
